Results: ChEMBL document CHEMBL5244212, “Recent advances in the rational design and development of LIM kinase inhibitors are not enough to enter clinical trials” (Eur J Med Chem, 2018)

Columns and labels:
[1] = system: Human immunodeficiency virus; assay: Antiviral activity against HIV at 1 uM relative to control; format: functional
[2] = system: Human immunodeficiency virus; assay: Antiviral activity against HIV at 10 uM relative to control; format: functional
[3] = system: Human immunodeficiency virus; assay: Antiviral activity against HIV at 100 uM relative to control; format: functional
cells = settings: Mus musculus, NF-1
Description: Cytotoxicity against mouse NF-1 cells assessed as reduction in cell growth

[4] = Half life in rat, iv at 1 mg/kg; format: ADME, organism-based; settings: in vivo
LIM domain kinase 1 [5] = target: T1, LIM domain kinase 1 (Homo sapiens, UniProt P53667); assay: Inhibition of LIMK1 (unknown origin) phosphorylation of cofilin
Target sequence in this assay (P53667 whole entry, the tested form may be a part): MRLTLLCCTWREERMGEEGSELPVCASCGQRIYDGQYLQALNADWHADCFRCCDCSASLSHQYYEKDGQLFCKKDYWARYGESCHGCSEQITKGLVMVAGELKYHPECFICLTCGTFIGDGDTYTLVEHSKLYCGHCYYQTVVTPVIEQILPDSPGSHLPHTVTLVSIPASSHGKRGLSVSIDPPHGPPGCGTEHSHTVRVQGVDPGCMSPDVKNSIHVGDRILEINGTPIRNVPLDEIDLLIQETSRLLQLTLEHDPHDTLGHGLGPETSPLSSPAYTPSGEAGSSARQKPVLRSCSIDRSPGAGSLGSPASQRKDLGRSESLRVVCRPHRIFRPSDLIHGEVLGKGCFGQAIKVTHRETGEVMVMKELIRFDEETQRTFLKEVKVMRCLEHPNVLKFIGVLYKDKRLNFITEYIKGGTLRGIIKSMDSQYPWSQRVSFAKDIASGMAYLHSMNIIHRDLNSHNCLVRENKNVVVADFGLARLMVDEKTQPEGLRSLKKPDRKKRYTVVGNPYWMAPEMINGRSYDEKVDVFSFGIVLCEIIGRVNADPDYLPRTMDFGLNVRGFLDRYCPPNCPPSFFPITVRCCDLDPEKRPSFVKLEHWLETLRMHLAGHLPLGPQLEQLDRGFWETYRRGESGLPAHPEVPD

LIM domain kinase 2 [6] = target: T2, LIM domain kinase 2 (Homo sapiens, UniProt P53671); assay: Inhibition of LIMK2 (unknown origin)
Mus musculus = organism: Mus musculus; assay: Antiglaucoma activity in ocular […] mouse assessed as reduction in intraocular pressure at 15 ug measured after 4 hrs; format: functional; settings: dose 15 µg
MDA-MB-231 = assay: Cytotoxicity against human MDA-MB-231 cells assessed as reduction in cell viability incubated for 96 hrs at 3 uM by MTT method relative to control; format: functional
[7] = target: Rho-associated protein kinase 2 (Homo sapiens, UniProt O75116); assay: Inhibition of human recombinant ROCK2 by ADP glo kinase assay
PANC-1 [8] = assay: Cytotoxicity against human PANC-1 cells assessed as reduction in cell growth relative to control; format: functional; parameters: scale not given: the % may be the effect or the level left
PANC-1 [9] = assay: Anti-tumor activity against human PANC-1 cells xenografted in athymic nude mouse assessed as reduction in tumor growth at 100 mg/kg, ip measured after 35 days relative to control; format: functional; parameters: scale not given: the % may be the effect or the level left; settings: time 35 day
[10] = Inhibition of AbI (unknown origin); parameters: species or system Homo sapiens
LIM domain kinase 2 [11] = target: T2, LIM domain kinase 2; assay: Inhibition of LIMK2 (unknown origin) in presence of ATP at 25 uM
Homo sapiens = organism: Homo sapiens; assay: Selectivity index, ratio of IC50 for ROCK2 (unknown origin) to IC50 for PKA (unknown origin)
[12] = target: cAMP-dependent protein kinase (PKA) (Homo sapiens) (UniProt P22694+P17612+P22612); assay: Inhibition of PKA (unknown origin) assessed as fold increase; format: protein assay
LIM domain kinase 2 [13] = target: T2, LIM domain kinase 2; assay: Inhibition of LIMK2 (unknown origin) in presence of ATP at 200 uM
LIM domain kinase 1 [14] = target: T1, LIM domain kinase 1; assay: Inhibition of LIMK1 (unknown origin)
Target sequence in this assay (P53667 whole entry, the tested form may be a part): as above

LIM domain kinase 1 [15] = target: T1, LIM domain kinase 1; assay: Inhibition of human recombinant LIMK1
Target sequence in this assay (P53667 whole entry, the tested form may be a part): as above

LIM domain kinase 2 [16] = target: T2, LIM domain kinase 2; assay: Inhibition of human recombinant LIMK2
LIM domain kinase 1 [17] = target: T1, LIM domain kinase 1; assay: Inhibition of human LIMK1 (321 to 647 residues) expressed in Sf9 cells using […] as substrate incubated for 30 mins by micro-scintillation fluid method
Target sequence in this assay (P53667 whole entry, the tested form may be a part): as above

LIM domain kinase 1 [18] = target: T1, LIM domain kinase 1; assay: Inhibition of human LIMK1 (312 to 638 residues) expressed in Sf9 cells using […] as substrate incubated for 30 mins by micro-scintillation fluid method
Target sequence in this assay (P53667 whole entry, looked up, the tested form may be a part): as the sequence (P53667 whole entry, the tested form may be a part) above

T2 sequence (P53671 whole entry, the tested form may be a part): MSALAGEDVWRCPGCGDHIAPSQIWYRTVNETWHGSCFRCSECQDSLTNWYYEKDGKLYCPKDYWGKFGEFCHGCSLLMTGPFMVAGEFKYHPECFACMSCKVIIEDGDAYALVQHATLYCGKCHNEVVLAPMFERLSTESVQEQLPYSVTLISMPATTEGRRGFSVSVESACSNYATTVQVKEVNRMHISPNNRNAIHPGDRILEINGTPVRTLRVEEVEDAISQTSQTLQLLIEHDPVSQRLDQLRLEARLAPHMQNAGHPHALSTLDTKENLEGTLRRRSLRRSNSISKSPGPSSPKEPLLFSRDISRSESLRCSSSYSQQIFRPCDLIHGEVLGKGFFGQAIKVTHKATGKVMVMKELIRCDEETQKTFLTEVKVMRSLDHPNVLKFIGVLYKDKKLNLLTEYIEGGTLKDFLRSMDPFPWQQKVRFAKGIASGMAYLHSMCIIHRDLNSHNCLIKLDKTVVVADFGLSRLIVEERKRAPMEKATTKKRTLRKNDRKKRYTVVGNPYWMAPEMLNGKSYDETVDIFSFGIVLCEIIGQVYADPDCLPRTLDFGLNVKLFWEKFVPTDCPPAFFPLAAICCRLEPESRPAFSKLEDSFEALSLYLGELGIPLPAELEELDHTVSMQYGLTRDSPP
Sequence of Rho-associated protein kinase 2 (O75116 whole entry): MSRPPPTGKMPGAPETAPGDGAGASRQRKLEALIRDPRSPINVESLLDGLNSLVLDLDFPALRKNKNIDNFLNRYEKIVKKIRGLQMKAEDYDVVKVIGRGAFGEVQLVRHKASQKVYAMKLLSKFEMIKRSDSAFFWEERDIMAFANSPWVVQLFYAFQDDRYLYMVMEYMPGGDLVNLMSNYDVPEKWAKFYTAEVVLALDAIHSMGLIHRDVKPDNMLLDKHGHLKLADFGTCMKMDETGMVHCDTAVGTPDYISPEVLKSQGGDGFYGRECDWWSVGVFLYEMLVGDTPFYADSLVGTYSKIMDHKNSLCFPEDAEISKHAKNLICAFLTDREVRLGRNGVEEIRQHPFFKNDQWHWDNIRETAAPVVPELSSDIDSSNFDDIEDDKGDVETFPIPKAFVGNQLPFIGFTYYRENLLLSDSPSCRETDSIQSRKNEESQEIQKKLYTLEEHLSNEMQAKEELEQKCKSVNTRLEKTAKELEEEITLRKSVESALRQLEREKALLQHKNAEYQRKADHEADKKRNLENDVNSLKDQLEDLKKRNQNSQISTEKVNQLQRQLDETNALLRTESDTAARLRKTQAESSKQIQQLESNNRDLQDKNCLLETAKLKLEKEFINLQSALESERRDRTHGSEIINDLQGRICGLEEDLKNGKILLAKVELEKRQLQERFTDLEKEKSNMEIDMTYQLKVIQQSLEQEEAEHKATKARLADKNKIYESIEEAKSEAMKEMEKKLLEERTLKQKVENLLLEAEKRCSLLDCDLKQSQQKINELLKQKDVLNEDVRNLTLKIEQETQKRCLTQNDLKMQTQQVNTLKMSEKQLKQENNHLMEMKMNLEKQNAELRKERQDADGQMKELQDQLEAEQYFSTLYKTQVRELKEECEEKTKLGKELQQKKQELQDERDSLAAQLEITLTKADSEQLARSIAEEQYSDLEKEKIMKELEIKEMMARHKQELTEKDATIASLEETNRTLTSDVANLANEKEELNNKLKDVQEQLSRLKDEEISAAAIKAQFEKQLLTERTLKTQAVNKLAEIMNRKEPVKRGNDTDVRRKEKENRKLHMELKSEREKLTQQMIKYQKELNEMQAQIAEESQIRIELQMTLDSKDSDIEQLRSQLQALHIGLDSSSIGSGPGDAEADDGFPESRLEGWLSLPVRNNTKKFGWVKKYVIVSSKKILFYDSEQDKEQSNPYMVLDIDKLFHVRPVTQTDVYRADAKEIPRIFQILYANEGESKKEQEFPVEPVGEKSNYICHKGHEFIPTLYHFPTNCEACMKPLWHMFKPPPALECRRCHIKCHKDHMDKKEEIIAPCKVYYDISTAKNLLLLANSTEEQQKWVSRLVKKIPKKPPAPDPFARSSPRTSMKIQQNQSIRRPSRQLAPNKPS

Compound: COC(=O)c1ccc2[nH]c(C3CCN(c4ncnc5[nH]cc(Cl)c45)CC3)nc2c1
- Activity [1]: 50%
- Activity [2]: 70%
- Activity [3]: 80%

Compound: CC(C)C(=O)Nc1ncc(-c2cc(C(F)F)nn2-c2c(Cl)cccc2Cl)s1
- EC50 (cells): 30000 nM

Compound: Cc1c[nH]c2ncnc(-c3ccc(NC(=O)N(CCN(C)C)c4ccc(Cl)cc4)cc3)c12
- half-life [4]: 6 h

Compound: COCCN(C(=O)Nc1ccc(-c2ncnc3[nH]c(C)c(C)c23)c(F)c1)c1ccc(Cl)cc1
- IC50 (LIM domain kinase 1 [5]): 8 nM

Compound: CN(C)C1(C(=O)Nc2cccc(-c3ccccc3)c2)CCN(c2ncnc3[nH]c4c(c23)CCCC4)CC1
- IC50 (LIM domain kinase 2 [6]): 0.1 nM

Compound: O=C(CC1CCCN1)Nc1ncc(-c2cc(C(F)F)nn2-c2c(Cl)cccc2Cl)s1 (configuration not stated)
- Activity (Mus musculus): 5 mmHg

Compound: Cc1c[nH]c2ncnc(N3CCN(C(=O)Nc4cccc(OC(=O)N(C)C)c4)[C@@H](C)C3)c12
- Activity (Mus musculus): 3 mmHg

Compound: CC(C)CNc1ncc(-c2ccncc2-c2ccccc2Cl)s1
- Activity (MDA-MB-231): 70%

Compound: Cc1c[nH]c2ncnc(-c3ccc(NC(=O)Nc4cccc(C(=O)NC(C)C)c4)cc3F)c12
- IC50 [7]: 18 nM

Compound: Cc1cc(C(=O)Nc2cccc(C(=O)Nc3cccc(C(F)(F)F)c3)c2)on1
- Activity (PANC-1 [8]): 46%
- Activity (PANC-1 [9]): 80%

Compound: CN(Cc1ccccc1)C(=O)c1ccc(S(=O)(=O)Nc2ccccc2)cc1
- IC50 [10]: 6 nM

Compound: Cc1c[nH]c2ncnc(N3CCC(C(=O)Nc4cccc(OC(=O)N(C)C)c4)[C@@H](C)C3)c12 (some centres not stated)
- IC50 (LIM domain kinase 2 [11]): 110 nM

Compound: Cc1c[nH]c2ncnc(N3CCC(C(=O)Nc4cccc(OC(=O)N(C)C)c4)C(C)C3)c12 (configuration not stated)
- IC50 (LIM domain kinase 2 [11]): 210 nM

Compound: CN(C)C(=O)Oc1cccc(NC(=O)C2(CN)CCN(c3ncnc4[nH]c5c(c34)CCCC5)CC2)c1
- Selectivity Index (Homo sapiens): 1
- fold change (FC) [12]: 0.7

Compound: COC(=O)Cc1cccc(NC(=O)C2(CN)CCN(c3ncnc4[nH]c5c(c34)CC(F)CC5)CC2)c1 (configuration not stated)
- IC50 (LIM domain kinase 2 [13]): < 0.1 nM

Compound: COc1cc(-c2nn(C3CCC(N4CCN(C)CC4)CC3)c3ncnc(N)c23)ccc1NC(=O)OCc1ccccc1 (configuration not stated)
- IC50 (LIM domain kinase 1 [14]): 900 nM
- IC50 (LIM domain kinase 2 [6]): 800 nM

Compound: Cc1c2cc[nH]c(=O)c2c(C)c2c1[nH]c1ccc(OC(=O)c3ccccc3)cc12
- IC50 (LIM domain kinase 1 [15]): 50 nM
- IC50 (LIM domain kinase 2 [16]): 75 nM

Compound: O=C(Nc1ncc(-c2cc(C(F)F)nn2-c2c(Cl)cccc2Cl)s1)C1CC1
- IC50 (LIM domain kinase 1 [17]): 5 nM
- IC50 (LIM domain kinase 1 [18]): 6 nM

Compound: Cc1ccc(-c2cnccc2-c2cnc(Nc3ccc(O)cc3)s2)c(Cl)c1
- Activity (MDA-MB-231): 96%

Compound: Cc1[nH]c2ncnc(N3CCC(CN)(C(=O)Nc4cccc(OC(=O)N(C)C)c4)CC3)c2c1C
- IC50 (LIM domain kinase 1 [14]): 23 nM
